Results published in patent US20050037975A1, “Method for treatment of glutamate related disorders” (priority 1997, published 2005).

Assays:
brain or liver SSA DH = biological target: T1, brain or liver SSA DH (Mus musculus, UniProt Q8BWF0); experiment: In vivo effect on brain or liver SSA DH levels; settings: up to 100 mg/kg i.p.
T1 construct: with no effect on the levels of brain or liver SSA DH; from tissue; host or cells: brain or liver of treated animals
T1 sequence (Q8BWF0 36-523): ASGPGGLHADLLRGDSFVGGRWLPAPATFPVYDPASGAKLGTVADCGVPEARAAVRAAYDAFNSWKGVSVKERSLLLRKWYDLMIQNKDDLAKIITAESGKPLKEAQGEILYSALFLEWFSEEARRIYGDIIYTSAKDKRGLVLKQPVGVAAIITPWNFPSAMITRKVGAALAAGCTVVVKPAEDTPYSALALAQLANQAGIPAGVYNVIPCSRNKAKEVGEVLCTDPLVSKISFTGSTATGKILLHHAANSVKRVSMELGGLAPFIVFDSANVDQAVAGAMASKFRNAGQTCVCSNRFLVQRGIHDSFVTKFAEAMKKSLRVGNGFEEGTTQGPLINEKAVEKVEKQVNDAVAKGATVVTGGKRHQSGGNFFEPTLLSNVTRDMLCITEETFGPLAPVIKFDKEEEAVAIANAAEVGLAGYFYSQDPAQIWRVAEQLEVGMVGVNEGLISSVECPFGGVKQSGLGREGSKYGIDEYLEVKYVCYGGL

[1] = Plasma acetaldehyde determination after ethanol challenge; assay type: in vivo, rat; settings: 10.3 mg/kg IP in polyethylene glycol 200, ethanol challenge 1 g/kg IP
Experimental: Rats maintained as described in Ex. 4, fasted for 18 hours, were given 10.3 mg/kg of the DETC-Me SO intraperitoneally, dissolved in polyethylene glycol 200 and then challenged eight hours later with a dose of ethanol (1 g/kg; 20% v/v) also administered intraperitoneally. The rats were anesthetized with phenobarbital 30 minutes after alcohol administration and blood was taken by aortic puncture, being drawn into a heparinized syringe. Plasma acetaldehyde was determined by the method of C. O. P. Eriksson et al., Anal. Biochem., 80, 116 (1977). Plasma concentrations were determined based on a standard curve obtained with known concentrations of acetaldehyde. Control rats were treated with 1 ml/kg of polyethylene glycol 200.

[2] = Carbamoylation of glutathione by DETC-MeSO under physiological conditions
From the text: This rate of reaction was approximate an order of magnitude faster than that of the more familiar α-haloketone functionality.

mouse liver low Km ALDH = biological target: T2, mouse liver low Km ALDH (Mus musculus, UniProt P47738); experiment: In vivo inhibition of mouse liver aldehyde dehydrogenase
T2 construct: Liver aldehyde dehydrogenase was extracted and assayed as previously described; from tissue; host or cells: liver of treated mice
T2 sequence (P47738 20-519): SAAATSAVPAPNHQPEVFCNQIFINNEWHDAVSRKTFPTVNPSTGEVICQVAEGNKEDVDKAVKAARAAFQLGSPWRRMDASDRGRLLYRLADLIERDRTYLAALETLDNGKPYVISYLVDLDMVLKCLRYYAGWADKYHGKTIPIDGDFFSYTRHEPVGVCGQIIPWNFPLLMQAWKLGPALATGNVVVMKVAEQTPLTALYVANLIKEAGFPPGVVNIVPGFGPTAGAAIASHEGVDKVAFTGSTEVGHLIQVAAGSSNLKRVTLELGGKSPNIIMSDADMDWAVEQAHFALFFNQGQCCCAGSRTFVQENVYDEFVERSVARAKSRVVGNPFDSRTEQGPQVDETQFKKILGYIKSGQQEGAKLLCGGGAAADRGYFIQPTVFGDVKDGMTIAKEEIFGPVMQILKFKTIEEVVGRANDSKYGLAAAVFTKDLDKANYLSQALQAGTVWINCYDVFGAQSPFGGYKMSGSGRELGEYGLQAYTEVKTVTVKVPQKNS
Experimental: Reagents—DETC-MeSO was synthesized by the method of Hart and Faiman (B. W. Hart et al., Biochem. Pharmacol.), 43, 403-406 (1992). Carbamoylated glutathione, S-(N,N-diethylcarbamoyl)glutathione (DETC-GS), was prepared essentially as described by Jin et al. (L. Jin, supra). The structures and purity of DETC-MeSO and DETC-GS were confirmed by 300 MHz NMR and FAB-tandem mass spectrometry. A QE300 NMR spectrometer (General Electric, Fremont, Calif.) and Autospec-Q Tandem Hybrid mass spectrometer (Fiscons/VG Analytical Limited, Manchester, England) were employed for these analyses. Liver aldehyde dehydrogenase was extracted and assayed as previously described (B. W. Hart et al., supra). MetSOX monosodium L-glutamate, glycine, glutathione, and NMDA were purchased from Sigma Chemical Company (St. Louis, Mo.). L-[3-^3H]Glutamate (46 Ci/mmol) was obtained from Amerisham Life Science (Buckinghamshire, England).

effect on the levels of brain or liver SSA DH (brain or liver SSA DH): no effect
conversion to DETC-GS ([2]; GSH 1-6 mM, within 5 minutes): > 95%
DETC-MeSO remaining ([2]; blood, GSH 1 mM, after 5 minutes): less than 5%
DETC-MeSO remaining ([2]; liver, after one minute): less than 3%
inactivation of ALDH (mouse liver low Km ALDH; 5.2 mg/kg i.p. in mice, in 1 hour): 80%
effective concentration at its site of action in vivo (mouse liver low Km ALDH; 5.2 mg/kg i.p. in mice, worked out from inactivation rate): about 11 μM
inhibition at 2.6 mg/kg (mouse liver low Km ALDH; mouse, ip, 2.6 mg/kg i.p., read-out: inhibition of mouse liver enzyme (ALDH)): 84%
inhibition at 30 µmol/kg (mouse liver low Km ALDH; mouse, 30 μmol/kg intravenous, mice): 44.9 ± 1%
SMILES: CCN(CC)C(=O)[S+](C)[O-] (stereo not drawn) [DETC-MeSO, S-Methyl-N,N-Diethylthiolcarbamate Sulfoxide]
plasma acetaldehyde [1]: approximately 900 μM
rate of carbamoylation of the sulfhydryl group of glutathione (GSH) ([2]; 37° C., pH 7): 10 M⁻¹ s⁻¹
